The compounds below were run against AMPK alpha2/beta1/gamma1 (Homo sapiens) (UniProt P54646+P54619+Q9Y478) (assay: Potency index, ratio of mogrol EC50 to test compound EC50 for allosteric activation of AMPK alpha2/beta1/gamma1 in human HepG2 cells by scintillation proximity assay).
Chain of AMPK alpha2/beta1/gamma1 (Homo sapiens) (P54619 whole entry partner): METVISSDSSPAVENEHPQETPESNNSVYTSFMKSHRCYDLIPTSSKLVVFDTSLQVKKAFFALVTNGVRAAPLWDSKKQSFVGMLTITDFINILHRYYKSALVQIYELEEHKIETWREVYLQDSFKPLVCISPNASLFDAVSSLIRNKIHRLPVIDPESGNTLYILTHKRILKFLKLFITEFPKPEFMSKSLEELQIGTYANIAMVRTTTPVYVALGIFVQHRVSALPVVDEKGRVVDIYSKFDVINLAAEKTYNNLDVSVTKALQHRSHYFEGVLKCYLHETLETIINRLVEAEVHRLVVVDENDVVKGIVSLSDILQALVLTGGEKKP
Chain of AMPK alpha2/beta1/gamma1 (Homo sapiens) (P54646 whole entry): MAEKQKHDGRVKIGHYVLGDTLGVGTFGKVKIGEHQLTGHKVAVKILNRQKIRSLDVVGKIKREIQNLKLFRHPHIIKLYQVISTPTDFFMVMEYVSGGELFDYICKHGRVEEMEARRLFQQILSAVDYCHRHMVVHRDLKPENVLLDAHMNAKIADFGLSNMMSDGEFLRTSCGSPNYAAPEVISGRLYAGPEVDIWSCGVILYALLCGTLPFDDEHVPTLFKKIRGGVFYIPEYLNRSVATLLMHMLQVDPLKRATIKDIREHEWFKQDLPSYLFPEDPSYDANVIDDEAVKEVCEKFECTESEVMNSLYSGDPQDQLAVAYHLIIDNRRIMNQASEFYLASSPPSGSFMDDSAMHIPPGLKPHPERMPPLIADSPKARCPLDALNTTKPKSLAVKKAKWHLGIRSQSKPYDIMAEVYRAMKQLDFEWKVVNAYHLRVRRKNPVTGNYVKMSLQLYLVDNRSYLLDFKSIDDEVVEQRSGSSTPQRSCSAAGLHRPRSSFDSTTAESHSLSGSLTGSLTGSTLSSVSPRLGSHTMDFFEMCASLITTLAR
Chain of AMPK alpha2/beta1/gamma1 (Homo sapiens) (Q9Y478 2-270 partner limits assumed): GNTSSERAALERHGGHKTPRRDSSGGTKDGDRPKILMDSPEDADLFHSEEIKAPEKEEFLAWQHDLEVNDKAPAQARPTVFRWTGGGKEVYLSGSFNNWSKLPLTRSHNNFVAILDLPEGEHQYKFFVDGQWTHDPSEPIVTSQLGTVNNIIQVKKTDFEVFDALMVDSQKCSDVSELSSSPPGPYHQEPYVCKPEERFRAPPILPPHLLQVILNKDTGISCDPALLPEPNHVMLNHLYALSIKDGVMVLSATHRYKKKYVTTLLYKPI
Assay type: cell-based
In the case of `CC(C)NCCC[C@@H](C)[C@H]1CC[C@@]2(C)[C@@H]3CC=C4[C@@H](CC[C@H](O)C4(C)C)[C@]3(C)[C@H](O)C[C@]12C`, the Ratio EC50 is reported as 20. For `CCCNCCC[C@@H](C)[C@H]1CC[C@@]2(C)[C@@H]3CC=C4[C@@H](CC[C@H](O)C4(C)C)[C@]3(C)[C@H](O)C[C@]12C`, the Ratio EC50 was 20.

Each compound was assayed against AMPK alpha2/beta1/gamma1 (Homo sapiens, UniProt P54619+P54646+Q9Y478) (assay: Allosteric activation of AMPK alpha2/beta1/gamma1 in human HepG2 cells by scintillation proximity assay).
Chain of AMPK alpha2/beta1/gamma1 (P54646 whole entry): as the sequence (P54646 whole entry) above
Chain of AMPK alpha2/beta1/gamma1 (P54619 whole entry): as the sequence (P54619 whole entry partner) above
Chain of AMPK alpha2/beta1/gamma1 (Q9Y478 whole entry): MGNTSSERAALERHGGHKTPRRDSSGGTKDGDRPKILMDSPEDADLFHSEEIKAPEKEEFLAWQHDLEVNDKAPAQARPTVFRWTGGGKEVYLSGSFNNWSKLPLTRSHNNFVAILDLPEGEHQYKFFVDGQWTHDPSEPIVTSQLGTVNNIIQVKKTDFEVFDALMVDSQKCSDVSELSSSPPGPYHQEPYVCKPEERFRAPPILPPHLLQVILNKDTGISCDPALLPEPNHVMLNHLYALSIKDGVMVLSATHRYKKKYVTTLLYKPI
Assay type: cell-based
With `C[C@H](CCCNCc1ccncc1)[C@H]1CC[C@@]2(C)[C@@H]3CC=C4[C@@H](CC[C@H](O)C4(C)C)[C@]3(C)[C@H](O)C[C@]12C` the EC50 was 500 nM. Compound `C[C@H](CCCNCCc1ccc([N+](=O)[O-])cc1)[C@H]1CC[C@@]2(C)[C@@H]3CC=C4[C@@H](CC[C@H](O)C4(C)C)[C@]3(C)[C@H](O)C[C@]12C` has an EC50 of 1700 nM. Compound `C[C@H](CC[C@@H](O)C(C)(C)O)[C@H]1CC[C@@]2(C)[C@@H]3CC=C4[C@@H](CC[C@H](O)C4(C)C)[C@]3(C)[C@H](O)C[C@]12C` [MOGROL] has an EC50 of 3000 nM. `C[C@H](CCCNCCCO)[C@H]1CC[C@@]2(C)[C@@H]3CC=C4[C@@H](CC[C@H](O)C4(C)C)[C@]3(C)[C@H](O)C[C@]12C` was tested, and the EC50 was 1400 nM. Work on `C[C@H](CCCNCc1cccnc1)[C@H]1CC[C@@]2(C)[C@@H]3CC=C4[C@@H](CC[C@H](O)C4(C)C)[C@]3(C)[C@H](O)C[C@]12C` yielded an EC50 of 700 nM. For `C[C@H](CCCNCc1ccccn1)[C@H]1CC[C@@]2(C)[C@@H]3CC=C4[C@@H](CC[C@H](O)C4(C)C)[C@]3(C)[C@H](O)C[C@]12C`, the EC50 was 1600 nM. In the case of `C[C@H](CCCNCCN1CCNCC1)[C@H]1CC[C@@]2(C)[C@@H]3CC=C4[C@@H](CC[C@H](O)C4(C)C)[C@]3(C)[C@H](O)C[C@]12C`, the EC50 is reported as 500 nM. `Nc1ncnc2c1ncn2[C@@H]1O[C@H](COP(=O)(O)O)[C@@H](O)[C@H]1O` [ADENOSINE PHOSPHATE] was tested, and the EC50 was 1400 nM. `C[C@H](CCCNCc1ccc(F)cc1)[C@H]1CC[C@@]2(C)[C@@H]3CC=C4[C@@H](CC[C@H](O)C4(C)C)[C@]3(C)[C@H](O)C[C@]12C` gave an EC50 of 700 nM. In the case of `C[C@H](CCCNCCCn1ccnc1)[C@H]1CC[C@@]2(C)[C@@H]3CC=C4[C@@H](CC[C@H](O)C4(C)C)[C@]3(C)[C@H](O)C[C@]12C`, the EC50 is reported as 3500 nM. `CC(C)NCCC[C@@H](C)[C@H]1CC[C@@]2(C)[C@@H]3CC=C4[C@@H](CC[C@H](O)C4(C)C)[C@]3(C)[C@H](O)C[C@]12C` was tested, and the EC50 was 140 nM. `C[C@H](CCCNC(C)(C)C)[C@H]1CC[C@@]2(C)[C@@H]3CC=C4[C@@H](CC[C@H](O)C4(C)C)[C@]3(C)[C@H](O)C[C@]12C` was tested, and the EC50 was 1400 nM. With `COc1ccc(NCCC[C@@H](C)[C@H]2CC[C@@]3(C)[C@@H]4CC=C5[C@@H](CC[C@H](O)C5(C)C)[C@]4(C)[C@H](O)C[C@]23C)cc1` the EC50 was 4700 nM. `C[C@H](CCCNCCc1ccccc1)[C@H]1CC[C@@]2(C)[C@@H]3CC=C4[C@@H](CC[C@H](O)C4(C)C)[C@]3(C)[C@H](O)C[C@]12C` showed an EC50 of 2000 nM. `C[C@H](CCCNCc1ccc(Cl)cc1)[C@H]1CC[C@@]2(C)[C@@H]3CC=C4[C@@H](CC[C@H](O)C4(C)C)[C@]3(C)[C@H](O)C[C@]12C` gave an EC50 of 600 nM. In the case of `C[C@H](CCCNC1CC1)[C@H]1CC[C@@]2(C)[C@@H]3CC=C4[C@@H](CC[C@H](O)C4(C)C)[C@]3(C)[C@H](O)C[C@]12C`, the EC50 is reported as 4100 nM. Work on `COc1ccc(CCNCCC[C@@H](C)[C@H]2CC[C@@]3(C)[C@@H]4CC=C5[C@@H](CC[C@H](O)C5(C)C)[C@]4(C)[C@H](O)C[C@]23C)cc1OC` yielded an EC50 of 500 nM. `CNCCC[C@@H](C)[C@H]1CC[C@@]2(C)[C@@H]3CC=C4[C@@H](CC[C@H](O)C4(C)C)[C@]3(C)[C@H](O)C[C@]12C` was tested, and the EC50 was 7400 nM. In the case of `C[C@H](NCCC[C@@H](C)[C@H]1CC[C@@]2(C)[C@@H]3CC=C4[C@@H](CC[C@H](O)C4(C)C)[C@]3(C)[C@H](O)C[C@]12C)c1ccccc1`, the EC50 is reported as 1700 nM. `CCNCCC[C@@H](C)[C@H]1CC[C@@]2(C)[C@@H]3CC=C4[C@@H](CC[C@H](O)C4(C)C)[C@]3(C)[C@H](O)C[C@]12C` was tested, and the EC50 was 5000 nM. `C[C@H](CCCNCc1ccccc1)[C@H]1CC[C@@]2(C)[C@@H]3CC=C4[C@@H](CC[C@H](O)C4(C)C)[C@]3(C)[C@H](O)C[C@]12C` gave an EC50 of 1500 nM. With `COc1ccc(CNCCC[C@@H](C)[C@H]2CC[C@@]3(C)[C@@H]4CC=C5[C@@H](CC[C@H](O)C5(C)C)[C@]4(C)[C@H](O)C[C@]23C)cc1OC` the EC50 was 200 nM. `CCCNCCC[C@@H](C)[C@H]1CC[C@@]2(C)[C@@H]3CC=C4[C@@H](CC[C@H](O)C4(C)C)[C@]3(C)[C@H](O)C[C@]12C` was tested, and the EC50 was 150 nM.
